Data set [1] is described as follows: Blood kinetic test and time (T90) to maintain the IC90 value. It is filed as in vivo, Crl:CD(SD) Rat. Conditions: time the plasma concentration stays at the PBMC IC90 value or more; rat, intravenous 1 mg/kg. The procedure:
A test compound was weighed, dissolved in WellSolve (trade name; manufactured by Celeste Corporation)/water/physiological saline=1/9/10 which was heated at 60° C. and adjusted to 20 mg/mL. Thereafter, the test compound was diluted by 10 times with distilled water for injection, and further diluted by 2 times with physiological saline. Then, intravenous administration was performed by rapid single administration of an intravenously administered solution (1 mg/kg) from the tail vein of Crl:CD(SD) Rat (male, manufactured by CHARLES RIVER LABORATORIES JAPAN, INC). The administration is conducted under fasting conditions; water is freely ingested. A 0.35 mL blood sample is taken from cervical vein by using Heparinized Syringe at 5 minutes, 15 minutes, 30 minutes, 1 hour, 2 hours, 4 hours, 6 hours, 8 hours, and 24 hours after administration. The obtained blood is stored in ice, and after centrifugation at 12,000 rpm for 5 minutes, blood plasma is fractionated. An internal standard solution (100 μL) and acetonitrile (2 mL) was added to 100 μL of plasma, followed by stirring and further centrifugation at 2,500 rpm for 10 minutes. The supernatant was desiccated by a centrifugal thickener and then 150 μL of an aqueous 67% dimethyl sulfoxide solution was added to the residue thereby dissolving again the residue, and 20 μL of the resultant solution was analyzed by LC/MS/MS.
Analysis by LC/MS/MS was carried out under the following conditions.
A curve of the compound concentration in plasma versus the time of each compound was adapted to a 1 or 2 compartment model using pharmacokinetic analysis software WinNonlin (trade name) (ver4.0.1, Pharsight Corporation).

For data set [2], the system named is X4-HIV-1 strains (for example, HIV-1NL4.3 strains). Kind of data set: HIV infection inhibitory test using PBMC. It is filed as cell-based. Conditions: human PBMC stimulated with PHA and IL-2, culture 7 days, culture supernatant. The procedure:
Human PBMC (peripheral blood mononuclear cells) was isolated from HIV-negative healthy persons and subjected to stimulated culture in the presence of PHA (Phytohemagulutinin) and IL-2. Stimulated PBMC was inoculated in each of 96-well microplates and X^4-HIV-1 strains (for example, HIV-1NL4.3 strains) were exposed in the co-presence of a test compound. After culturing for 7 days, a reverse transcriptase activity of HIV-1 in the culture supernatant was measured and an inhibitory ratio (%) of the test compound was calculated by the following calculation formula, and a concentration (IC90 value) showing a 90% inhibitory ratio was determined. Inhibition={(Et−Ec)/Et}×100 [Equation 1] Et: reverse transcriptase activity value in the absence of a test compound Ec: reverse transcriptase activity value in the presence of a test compound

Data set [3] has as its system CHL/IU (cell line derived from a Chinese hamster lung). Kind of data set: Phospholipid accumulation measurement (phospholipidosis induction). It is filed as cell-based. Conditions: NBD-PE, about 48 hours, at 400 μM (maximum treatment concentration); positive = 25% or more of maximum increase rate of amiodarone. As to the method: 100 µL/well as required (1 dose 2 wells) of cell suspension of CHL/IU (cell line derived from a Chinese hamster lung) (7×10^4 cells/mL) prepared by MEM (minimum essential medium) culture medium was added to a 96-well plate (96-well clear-bottom plate), and cultured for about 24 hours. After culture, the supernatant of the 96-well plate was removed, and the 100 μL/well compounds of each concentration dissolved and suspended in a minimum essential medium (MEM) including 25 μM nitrobenzoxazole dipalmitoyl phosphatidylethanolamine (NBD-PE) (hereinafter abbreviated to a NPD-PE medium) were added and treated for about 48 hours. The treatment concentrations of each compound were set to be 5, 50, 100, 200 and 400 μM. The positive control substance was set to be amiodarone hydrochloride, and the treatment concentrations were set to be 1.25, 2.5, 5, 10 and 20 μM. In addition, 5-well untreated controls (only MEM) and 5-well NBD-PE controls (made by means of adding a 1/100 amount of DMSO to the NBD-PE culture medium) were set per compound, and cultured in the same manner. After finishing the culture, the cultures were washed twice with PBS (−) 100 μL/well, and the MEM (100 μL) was added to all of the treatment wells including two empty wells for WST-1 background controls and cultured for about half an hour. The fluorescence intensities of each well were measured by using a microplate reader (manufactured by Molecular Devices Inc., SPECTRA max M2; the excitation wavelength 485 nm/fluorescence wavelength 535 nm). Using the average values of each dose×2 wells, a phospholipid increase rate (%) to the NBD-PE control was calculated by using the following calculating formula: Rate of increase of phospholipid accumulation (%)=100×{(test substance fluorescence intensity−non-treated control fluorescence intensity)/(NBD-PE control fluorescence intensity−non-treated control fluorescence intensity)} 3. Cytotoxicity Test 96-well plate measured in the phospholipid accumulation measurement was measured by means of Plate Reader (manufactured by Molecular Devices Inc., SPECTRA max M2) with the main wavelength of 450 nm and the correct wavelength of 690 nm to calculate a Pre value. An amount of 5 μL/well of Premix WST-1 was added to each of the 96-well plates by which Pre measurement was conducted. After culture for 2 to 4 hours, the 96-well plate was measured as well as the Pre measurement to calculate an Aft value. Then, the background control value was subtracted from the each measured value. A value which was calculated by subtracting the Pre value from the Aft value was used, then the cell growth rate (%) was calculated by using the following calculating formula: Cell growth rate (%)=100×{(test substance OD)/(NBD-PE control OD)} 4. Determination A test dose that indicated value of 25% or more of the maximum phospholipid accumulation increase rate of amiodarone which was the positive control was determined as positive. In addition, the dose whose cell growth rate was equal to or less than 50% in the cytotoxicity test was not used for determination of existence or nonexistence of a phospholipidosis inductive effect.

Another data set addresses T1, CXCR4 (Homo sapiens, UniProt P61073).
T1 construct: a human T cell strain in which CXCR4 is known to be expressed; endogenous in cells; host or cells: CEM cells (human T cell strain)
Kind of data set: Inhibition of binding human SDF-1 to CEM cells. Conditions: 125I-SDF-1, CEM cells, 4° C., 60 minutes; read-out: concentration showing 50% of an inhibition ratio. The procedure: Specifically, as a system of screening a compound that inhibits the binding between SDF-1 and CXCR4, for example a system of measuring the binding between iodine-labeled SDF-1 and a human T cell strain in which CXCR4 is known to be expressed is operable.
To human T cell strain CEM cells in a binding buffer (containing 2-[4-(2-Hydroxyethyl)-1-piperadinyl]ethansulfonic acid; HEPES and BSA), the test compound and ^125I-SDF-1 (PerkinElmer) were added and the mixture was incubated at 4° C. for 60 minutes. The reacted CEM cells were rapidly filtrated with a GF/B membrane filter plate (Packard) to adsorb. The plate was washed with phosphate buffered saline (hereinafter abbreviated to PBS) three times and then dried. Microscint+20 (Packard) was added thereto. An amount of the radioactivity bound to the CEM cells was measured using Top Count (Packard) and inhibition ratio (%) of the test compound was calculated according to the following equation: Inhibition={(Et−Ea)/(Et−Ec)}×100 [Equation 2] Et: Amount of radioactivity when the test compound is not added, Ec: Amount of radioactivity when non-radioactive SDF-1 (Pepro Tech) is added in an amount of 1,000 times as much as ^125I-SDF-1 as a test compound, and Ea: Amount of radioactivity when the test compound is added.

T1 sequence (P61073 whole entry): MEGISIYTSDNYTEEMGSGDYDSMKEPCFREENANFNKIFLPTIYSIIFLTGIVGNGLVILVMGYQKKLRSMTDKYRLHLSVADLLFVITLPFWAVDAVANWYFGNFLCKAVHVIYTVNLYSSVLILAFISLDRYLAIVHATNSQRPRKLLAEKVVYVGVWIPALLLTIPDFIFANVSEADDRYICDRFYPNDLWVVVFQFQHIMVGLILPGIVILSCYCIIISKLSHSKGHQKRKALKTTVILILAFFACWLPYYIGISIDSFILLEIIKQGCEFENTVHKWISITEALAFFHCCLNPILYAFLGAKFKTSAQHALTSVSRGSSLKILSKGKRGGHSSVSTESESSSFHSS

As for `CCC(CC)N1CCC2(CC1)CC(C(=O)O)N(Cc1ccc(CN(Cc3ncc[nH]3)Cc3ncc[nH]3)cc1)C2` (stereo not shown) [Example 5(5), 2-(4-{[bis(1H-imidazol-2-ylmethyl)amino]methyl}benzyl)-8-(1-ethylpropyl)-2,8-diazaspiro[4.5]decane-3-carboxylic acid], the “T90” value in data set [1] is listed as 91 h. In data set [2], the “IC90 value (concentration showing a 90% inhibitory ratio of HIV-1 reverse transcriptase activity)” value is listed as 0.27 nM. In data set [3], the “phospholipidosis induction activity (determination)” value is recorded as “negative”. Besides, the IC50 at CXCR4 is 3 nM.

For the origin of these results see patent US8476290B2, “Compound having spiro-bonded cyclic group and use thereof” (Ono Pharmaceutical Co., Ltd., priority 2009, dated 2013).
